Data set [1] can be described thus: Recovery in urine after oral administration to mice (paper-disc assay). In kind it is in vivo, mice of ICR-strain (male). To be noted: 0.5 mg per mouse, suspension in 0.2% CMC, urine to 4 hours, molar % as free carboxylic acid form, average of three mice, E. coli K-12 8236 bioassay, read-out: Rate of recovery of the test compound in urine. From the text:
The new cephalosporin compound of this invention as orally administered is easily absorbed through the intestines by a living animal and maintains its antibacterial activity to a substantial extent in the body of the animal until it is excreted in the urine of the animal, and this may be observed by determining the remaining amount of the cephalosporin compound of this invention which can be recovered in the urine without receiving a substantial degradation of the compound in vivo. Some tests were made to evaluate the amount of the cephalosporin compound of this invention which can be recovered as the antibacterially active compound from the urine after it was orally given to mice.
To mice of ICR-strain (male, 4-weeks-aged, three in each group) was orally administered the compound under test identified below, at a dosage of the compound of 0.5 mg per mouse. The compound under test was given as a suspension of the test compound in a solution of 0.2% carboxymethylcellulose (CMC) in water. By the end of 4 hours after the administration of the test compound, all the amounts of the urine excreted by the treated mice were collected together, and the total quantity of the cephalosporin compound of this invention (as the free carboxylic acid form) in the urine was determined according to a paper-disc assay method using Escherichia coli K-12 8236 as the assaying strain. […]

The test system of data set [2] is Staphylococcus aureus 209P JC-1. Nature of the data set: MIC by agar-dilution method, Staphylococcus aureus 209P JC-1. In kind it is cell-based. The following applies: read-out: MIC. From the text: (§1) The compounds of this invention are all novel compounds.
Data set [3] relates to Staphylococcus aureus Smith. The experiment in a line: MIC by agar-dilution method, Staphylococcus aureus Smith. In kind it is cell-based. To be noted: read-out: MIC.
Text: as §1

Data set [4] concerns Escherichia coli NIHJ JC-2. Nature of the data set: MIC by agar-dilution method, Escherichia coli NIHJ JC-2. In kind it is cell-based. To be noted: NIHJJC2, read-out: MIC.
Text: as §1

For data set [5], the system named is Klebsiella pneumoniae PCI 602. Nature of the data set: MIC by agar-dilution method, Klebsiella pneumoniae PCI 602. In kind it is cell-based. To be noted: PCI602, read-out: MIC.
Text: as §1

Data set [6] relates to Proteus mirabilis GN 79. Nature of the data set: MIC by agar-dilution method, Proteus mirabilis GN 79. In kind it is cell-based. To be noted: GN79, read-out: MIC.
Text: as §1

Data set [7] concerns Proteus vulgaris GN 76. Nature of the data set: MIC by agar-dilution method, Proteus vulgaris GN 76. In kind it is cell-based. To be noted: GN76, read-out: MIC.
Text: as §1

Data set [8] concerns Proteus rettgeri GN 624. The experiment in a line: MIC by agar-dilution method, Proteus rettgeri GN 624. In kind it is cell-based. The following applies: Providencia rettgeri, GN624, read-out: MIC.
Text: as §1

Data set [9] concerns Salmonella typhimurium LT-2. The experiment in a line: MIC by agar-dilution method, Salmonella typhimurium LT-2. In kind it is cell-based. To be noted: Salmonella enterica, read-out: MIC.
Text: as §1

Data set [10] concerns Serratia marcescens No. 1. Nature of the data set: MIC by agar-dilution method, Serratia marcescens No. 1. In kind it is cell-based. To be noted: read-out: MIC.
Text: as §1

Data set [11] deals with Pseudomonas aeruginosa MB 3833. The experiment in a line: MIC by agar-dilution method, Pseudomonas aeruginosa MB 3833. In kind it is cell-based. The following applies: MB3833, read-out: MIC.
Text: as §1

We go through three compounds from patent US4839350A, “Cephalosporin compounds and the production thereof” (Meiji Seika Kaisha, Ltd., priority 1984, dated 1989).

The structures appear in SMILES notation. Structures can show the parent of a compound that is named as a salt.

For the compound `CO/N=C(\C(=O)NC1C(=O)N2C(C(=O)OCOC(=O)C(C)(C)C)=C(/C=C\c3scnc3Cl)CSC12)c1csc(N)n1` (stereo not drawn) [Example 22, 7-[2-methoxyimino-2-(2-aminothiazol-4-yl)acetamido]-3-[2-(4-chlorothiazol-5-yl)vinyl]-3-cephem-4-carboxylic acid (syn-isomer, cis-isomer) pivaloyloxymethyl ester], the dose excreted at 4 h in data set [1] turned out to be 24%.
Usually MIC stands for the smallest concentration in the dilution series that meets the test's criterion for growth inhibition. Take `CO/N=C(\C(=O)NC1C(=O)N2C(C(=O)O)=C(/C=C\c3sc(Cl)nc3Cl)CSC12)c1csc(N)n1` (stereo not drawn) [Example 34, 7-[2-methoxyimino-2-(2-aminothiazol-4-yl)acetamido]-3-[2-(2,4-dichlorothiazol-5-yl)vinyl]-3-cephem-4-carboxylic acid sodium salt (syn-isomer, cis-isomer)]: the minimum inhibitory concentration (MIC) in data set [2] is 0.2 µg/mL; in data set [3] it was 0.2 µg/mL; in data set [4] it was 3.13 µg/mL; in data set [5] it was 3.13 µg/mL; in data set [6] it was 0.78 µg/mL; in data set [7], 1.56 µg/mL. For the same compound, the minimal inhibitory concentration (MIC) in data set [8] was determined as 1.56 µg/mL; in [9], 3.13 µg/mL; in data set [10], 1.56 µg/mL; in data set [11], 100 µg/mL.
As for `CO/N=C(\C(=O)NC1C(=O)N2C(C(=O)OCOC(=O)C(C)(C)C)=C(/C=C\c3cncs3)CSC12)c1csc(N)n1` (stereo not drawn) [Example 38, 7-[2-methoxyimino-2-(2-aminothiazol-4-yl)acetamido]-3-[2-(thiazol-5-yl)vinyl]-3-cephem-4-carboxylic acid (syn-isomer, cis-isomer) pivaloyloxymethyl ester], in data set [1], the dose excreted at 4 h was determined as 20%.
